Source: patent US20040219104A1, “Methods for treatment of tumors” (priority 2003, published 2004)

System: JJ5 Breast Cancer cells
Test: Kinetics of binding, internalization and retention of radioactivity in JJ5 breast cancer cells
Assay type: cell-based, human
Conditions: 37° C.
Experimental: For the normal breast cell line HBL-100, 8000 EGFR/cell has been reported. The expression of EGFR in breast cancer cell lines has a reported range of 800 EGFR/cell for MCF-7 cells to […] for MDA-MB-468 cells. […] Utilizing the Auger electron emitter ^111In was used in the initial experiments to illustrate the utility of the invention using EGF-^111In-labeled transferrin conjugates. The EGF-^111In-labeled transferrin (0.25-80 ng) was incubated with 1.5×10^6 cells/dish JJ5 Breast Cancer (prepared from BCBM JJ5) cells in 1 mL of 0.1% human serum albumin in 35 mm multiwell culture dishes at 37° C. for 30 minutes. The cells were transferred to a centrifuge tube and centrifuged. The cell pellet was separated from the supernatant and counted in a g-scintillation counter to determine bound (B) and free (F) radioactivity. Non-specific binding was determined by conducting the assay in 100 nM hEGF. The kinetics of binding was determined by incubating 1 ng of EGF-^111In-labeled transferrin conjugate with 3×10^6 JJ5 Breast Cancer cells at 37° C. and determining the proportion of radioactivity bound to the cells at various times up to 24 hours. Internalized fraction was measured by determining the proportion of radioactivity which could not be displaced from the cell surface by 100 nM hEGF. […]

**Q.** How did the “binding by the breast cancer cells (kinetics)” value turn out when “EGF-^111In-labeled transferrin conjugate: conjugate containing human epidermal growth factor (EGF) linked (biotin/streptavidin linker) to 111In-radiolabeled human transferrin” was run?
**A.** rapidly bound
